Results published in ChEMBL document CHEMBL1909046, “DrugMatrix in vitro pharmacology data”.

Columns and labels:
Carbonic anhydrase 2 = Carbonic anhydrase 2 (Homo sapiens, UniProt P00918); test: DRUGMATRIX: Carbonic Anhydrase II enzyme inhibition (substrate: 4-Nitrophenyl acetate (4-NPA)); assay type: tissue-based, Erythrocyte; settings: erythrocyte; Not Active = under 50% inhibition at 10 µM
[1] = biological target: T1, C-X-C chemokine receptor type 1 (Homo sapiens, UniProt P25024); note: in other assays of this panel Not Active means under 50% inhibition at 10 µM
T1 sequence (P25024 whole entry): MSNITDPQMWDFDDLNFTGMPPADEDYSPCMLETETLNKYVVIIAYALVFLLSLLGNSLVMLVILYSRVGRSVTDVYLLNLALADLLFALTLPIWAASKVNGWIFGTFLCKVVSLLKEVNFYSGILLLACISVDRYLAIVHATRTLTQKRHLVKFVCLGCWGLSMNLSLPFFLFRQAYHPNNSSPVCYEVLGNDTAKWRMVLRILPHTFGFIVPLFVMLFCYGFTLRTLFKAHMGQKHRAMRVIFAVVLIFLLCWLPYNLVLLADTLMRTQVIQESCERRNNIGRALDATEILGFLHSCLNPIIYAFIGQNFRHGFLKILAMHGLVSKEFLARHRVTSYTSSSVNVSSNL

[2] = biological target: Tyrosine-protein kinase Lck (Homo sapiens, UniProt P06239); test: DRUGMATRIX: Protein Tyrosine Kinase, LCK enzyme inhibition (substrate: Poly(Glu:Tyr)); assay type: cell-based, Insect cells; settings: insect cells; Not Active = under 50% inhibition at 10 µM
Chain of Tyrosine-protein kinase Lck (P06239 whole entry): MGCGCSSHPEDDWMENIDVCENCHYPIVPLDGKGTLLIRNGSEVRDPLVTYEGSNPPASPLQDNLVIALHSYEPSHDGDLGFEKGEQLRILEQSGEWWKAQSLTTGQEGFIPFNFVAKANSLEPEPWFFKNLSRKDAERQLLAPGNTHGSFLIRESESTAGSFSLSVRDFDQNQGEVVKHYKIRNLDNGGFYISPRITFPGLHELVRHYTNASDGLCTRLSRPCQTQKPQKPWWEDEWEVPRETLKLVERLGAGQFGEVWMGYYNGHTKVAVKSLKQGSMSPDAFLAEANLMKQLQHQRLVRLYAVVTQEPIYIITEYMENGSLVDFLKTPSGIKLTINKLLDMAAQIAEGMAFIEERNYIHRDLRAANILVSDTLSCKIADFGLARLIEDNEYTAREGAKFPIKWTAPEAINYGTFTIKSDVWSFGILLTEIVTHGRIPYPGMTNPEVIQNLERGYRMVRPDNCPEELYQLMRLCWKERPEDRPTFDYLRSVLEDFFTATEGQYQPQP

[3] = biological target: T2, Neuropeptide Y receptor type 1 (Homo sapiens, UniProt P25929); assay type: cell membranes, Membrane; settings: sk-n-mc; note: in other assays of this panel Not Active means under 50% inhibition at 10 µM
T2 sequence (P25929 whole entry): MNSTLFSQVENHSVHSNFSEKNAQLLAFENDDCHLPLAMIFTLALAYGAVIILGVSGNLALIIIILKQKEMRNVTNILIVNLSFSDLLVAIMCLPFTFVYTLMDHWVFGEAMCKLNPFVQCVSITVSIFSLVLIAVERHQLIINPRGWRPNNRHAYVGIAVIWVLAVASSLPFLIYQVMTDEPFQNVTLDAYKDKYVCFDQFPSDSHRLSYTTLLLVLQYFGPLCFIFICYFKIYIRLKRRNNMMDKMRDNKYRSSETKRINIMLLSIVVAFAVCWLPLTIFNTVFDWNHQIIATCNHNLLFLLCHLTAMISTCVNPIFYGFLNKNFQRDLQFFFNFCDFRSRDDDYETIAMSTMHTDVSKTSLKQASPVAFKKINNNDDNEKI

[4] = DRUGMATRIX: GABAA, Flunitrazepam, Central radioligand binding (ligand: [3H] Flunitrazepam); assay type: cell membranes, Rattus norvegicus, Wistar, Brain, Membrane; settings: Not Active = under 50% inhibition at 10 µM
[5] = biological target: T3, Neuropeptide Y receptor type 2 (Homo sapiens, UniProt P49146); assay type: cell membranes, Membrane; settings: kan-ts; note: in other assays of this panel Not Active means under 50% inhibition at 10 µM
T3 sequence (P49146 whole entry): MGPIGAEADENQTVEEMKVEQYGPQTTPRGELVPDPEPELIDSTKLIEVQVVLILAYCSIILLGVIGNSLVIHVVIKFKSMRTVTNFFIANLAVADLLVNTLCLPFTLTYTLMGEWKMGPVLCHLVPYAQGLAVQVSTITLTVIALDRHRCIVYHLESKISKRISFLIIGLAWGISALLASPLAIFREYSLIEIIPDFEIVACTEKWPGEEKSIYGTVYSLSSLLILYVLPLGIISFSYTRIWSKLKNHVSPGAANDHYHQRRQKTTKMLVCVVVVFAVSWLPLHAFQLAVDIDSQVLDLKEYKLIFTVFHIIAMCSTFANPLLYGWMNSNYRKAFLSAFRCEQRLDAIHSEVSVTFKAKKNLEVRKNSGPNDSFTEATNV

[6] = biological target: C-C chemokine receptor type 5 (Homo sapiens, UniProt P51681); assay type: cell membranes, Membrane; settings: hek293; note: in other assays of this panel Not Active means under 50% inhibition at 10 µM
Chain of C-C chemokine receptor type 5 (P51681 whole entry): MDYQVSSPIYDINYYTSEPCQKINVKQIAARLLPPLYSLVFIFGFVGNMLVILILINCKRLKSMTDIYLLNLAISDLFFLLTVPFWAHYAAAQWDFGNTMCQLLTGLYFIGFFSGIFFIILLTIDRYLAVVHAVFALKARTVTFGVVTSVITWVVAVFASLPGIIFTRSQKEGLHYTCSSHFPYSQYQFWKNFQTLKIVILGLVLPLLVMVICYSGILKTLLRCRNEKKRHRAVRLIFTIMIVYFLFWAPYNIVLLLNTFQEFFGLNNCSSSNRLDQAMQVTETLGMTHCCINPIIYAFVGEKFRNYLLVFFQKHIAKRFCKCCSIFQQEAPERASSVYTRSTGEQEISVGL

[7] = biological target: T4, Type-2 angiotensin II receptor (Homo sapiens, UniProt P50052); test: biochemical; assay type: cell-based, CHO-K1; settings: cho-k1; note: in other assays of this panel Not Active means under 50% inhibition at 10 µM
T4 sequence (P50052 whole entry): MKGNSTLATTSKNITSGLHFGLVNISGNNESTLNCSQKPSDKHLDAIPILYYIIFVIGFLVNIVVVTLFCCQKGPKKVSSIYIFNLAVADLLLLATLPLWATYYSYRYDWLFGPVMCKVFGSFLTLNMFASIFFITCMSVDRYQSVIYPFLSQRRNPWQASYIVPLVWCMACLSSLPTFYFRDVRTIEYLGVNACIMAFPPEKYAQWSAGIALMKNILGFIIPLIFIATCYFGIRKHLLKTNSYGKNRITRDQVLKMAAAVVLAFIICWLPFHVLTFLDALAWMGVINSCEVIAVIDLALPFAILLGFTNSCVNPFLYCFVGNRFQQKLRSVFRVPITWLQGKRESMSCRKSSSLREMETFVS

CC(C)(C(=O)O)c1ccc(C(O)CCCN2CCC(C(O)(c3ccccc3)c3ccccc3)CC2)cc1 (centres undefined) [FEXOFENADINE]
Not Active: IC50 (Carbonic anhydrase 2) | IC50 [1] | IC50 [2] | IC50 [3] | IC50 [4] | Ki [4] | IC50 [5] | IC50 [6] | IC50 [7]

C[C@H]1COc2c(N3CCN(C)CC3)c(F)cc3c(=O)c(C(=O)O)cn1c23.C[C@H]1COc2c(N3CCN(C)CC3)c(F)cc3c(=O)c(C(=O)O)cn1c23.O [LEVOFLOXACIN]
Not Active: IC50 (Carbonic anhydrase 2) | IC50 [1] | IC50 [2] | IC50 [3] | IC50 [4] | Ki [4] | IC50 [5] | IC50 [6] | IC50 [7]

NC(=O)c1cccc(N)c1 [3-AMINOBENZAMIDE]
Not Active: IC50 (Carbonic anhydrase 2) | IC50 [1] | IC50 [2] | IC50 [3] | IC50 [4] | Ki [4] | IC50 [5] | IC50 [6] | IC50 [7]

CC(=O)OC[C@H]1O[C@@H](n2ncc(=O)[nH]c2=O)[C@H](OC(C)=O)[C@@H]1OC(C)=O [AZARIBINE]
Not Active: IC50 (Carbonic anhydrase 2) | IC50 [1] | IC50 [2] | IC50 [3] | IC50 [4] | Ki [4] | IC50 [5] | IC50 [6] | IC50 [7]

NC(=O)N1c2ccccc2CC(=O)c2ccccc21 [OXCARBAZEPINE]
Not Active: IC50 (Carbonic anhydrase 2) | IC50 [1] | IC50 [2] | IC50 [3] | IC50 [4] | Ki [4] | IC50 [5] | IC50 [6] | IC50 [7]

C#C[C@]1(O)CC[C@H]2[C@@H]3CCC4=CC(=O)CC[C@]4(C)[C@H]3CC[C@@]21C [ETHISTERONE]
Not Active: IC50 (Carbonic anhydrase 2) | IC50 [1] | IC50 [2] | IC50 [3] | IC50 [4] | Ki [4] | IC50 [5] | IC50 [6] | IC50 [7]

CCC1=C(C)CN(C(=O)NCCc2ccc(S(=O)(=O)NC(=O)N[C@H]3CC[C@H](C)CC3)cc2)C1=O [GLIMEPIRIDE]
Not Active: IC50 (Carbonic anhydrase 2) | IC50 [1] | IC50 [2] | IC50 [3] | IC50 [4] | Ki [4] | IC50 [5] | IC50 [6] | IC50 [7]

O=C(O)CCCc1cccs1
Not Active: IC50 (Carbonic anhydrase 2) | IC50 [1] | IC50 [2] | IC50 [3] | IC50 [4] | Ki [4] | IC50 [5] | IC50 [6] | IC50 [7]

Cc1ccc(C)c(OCCCC(C)(C)C(=O)O)c1 [GEMFIBROZIL]
Not Active: IC50 (Carbonic anhydrase 2) | IC50 [1] | IC50 [2] | IC50 [3] | IC50 [4] | Ki [4] | IC50 [5] | IC50 [6] | IC50 [7]

NNCCc1ccccc1 [PHENELZINE]
Not Active: IC50 (Carbonic anhydrase 2) | IC50 [1] | IC50 [2] | IC50 [3] | IC50 [4] | Ki [4] | IC50 [5] | IC50 [6] | IC50 [7]

O=C(O)CCNC(=O)c1ccc(/N=N/c2ccc(O)c(C(=O)O)c2)cc1 [BALSALAZIDE]
Not Active: IC50 (Carbonic anhydrase 2) | IC50 [1] | IC50 [2] | IC50 [3] | IC50 [4] | Ki [4] | IC50 [5] | IC50 [6] | IC50 [7]
